By EC50 is commonly meant the concentration giving half of the maximal effect.

This note sets out measurements from ChEMBL document CHEMBL4699527, “Chemical Constituents from the Aerial Parts of Elsholtzia ciliata and Their Protective Activities on Glutamate-Induced HT22 Cell Death” (J Nat Prod, 2020).

This assay concerns HT-22. As to the kind of experiment: Neuroprotective activity against glutamate-induced cell death in mouse HT-22 cells assessed as increase in cell viability after 24 hrs by EZ-Cytox assay. The format is functional, cell-based. Particulars: HT-22, 24 h.
Regarding `O=C(O)c1ccc(O)c(O)c1` [PROTOCATECHUIC ACID], the EC50 is above 100 µM.

On to `COc1cc(/C=C/C(=O)NC[C@H](O)c2ccc(O)cc2)ccc1O`, for which the EC50 was determined as 32.3 µM.

As for `CC(=O)N[C@@H](CS)C(=O)O` [ACETYLCYSTEINE], the EC50 was found to be 700 µM.

In the case of `O=C(/C=C/c1ccc(O)c(O)c1)O[C@@H]1C[C@](O)(C(=O)O)C[C@@H](OC(=O)/C=C/c2ccc(O)c(O)c2)[C@H]1O`, the EC50 was above 100 µM.

In the case of `COc1ccc(-c2cc(=O)c3c(O)cc(O[C@@H]4O[C@H](CO[C@@H]5O[C@@H](C)[C@H](OC(C)=O)[C@@H](O)[C@H]5O)[C@@H](O)[C@H](O)[C@H]4O[C@@H]4O[C@H](COC(C)=O)[C@@H](O)[C@H](OC(C)=O)[C@H]4O)cc3o2)cc1`, the EC50 was above 100 µM.

Regarding `O=C(/C=C/c1ccc(O)c(O)c1)O[C@H]1CC[C@@H](O)[C@H]1O`, the EC50 was above 100 µM.

In the case of `COc1cc(C(=O)O)ccc1O` [VANILLIC ACID], the EC50 was determined as 27.8 µM.

For `COc1ccc(-c2cc(=O)c3c(O)cc(O[C@@H]4O[C@H](CO[C@@H]5O[C@@H](C)[C@H](O)[C@@H](O)[C@H]5O)[C@@H](O)[C@H](O)[C@H]4O)cc3o2)cc1` [ACACIIN], the EC50 worked out at 69.3 µM.

As for `COc1ccc(-c2cc(=O)c3c(O)cc(O[C@@H]4O[C@H](CO[C@@H]5O[C@@H](C)[C@H](O)[C@@H](OC(C)=O)[C@H]5O)[C@@H](O)[C@H](O)[C@H]4O[C@@H]4O[C@H](COC(C)=O)[C@@H](O)[C@H](O)[C@H]4O)cc3o2)cc1`, the EC50 is above 100 µM.

As to `O=C(O)/C=C/C=C/c1ccc(O)c(O[C@@H]2O[C@H](COC(=O)/C=C/c3ccc(O)c(O)c3)[C@@H](O)[C@H](O)[C@H]2O)c1`, the EC50 came to 56.2 µM.

Consider `COc1ccc(-c2cc(=O)c3c(O)cc(O[C@@H]4O[C@H](CO[C@@H]5O[C@@H](C)[C@H](OC(C)=O)[C@@H](O)[C@H]5O)[C@@H](O)[C@H](O)[C@H]4O[C@@H]4O[C@H](COC(C)=O)[C@@H](O)[C@H](O)[C@H]4O)cc3o2)cc1`, for which the EC50 was above 100 µM.

`O=C(/C=C/c1ccc(O)cc1)c1ccc(O[C@@H]2O[C@H](CO)[C@@H](O)[C@H](O)[C@H]2O)cc1O`: the concentration giving a half-maximal response (EC50) came to 72 µM.

As for `CC(=O)/C=C/c1ccc(O)c(O)c1`, the EC50 is 1.5 µM.

As for `CCOC(=O)/C=C/c1ccc(O)c(O)c1` [ETHYL CAFFEATE], the EC50 worked out at 1.9 µM.

For the compound `OC[C@H]1O[C@@H](OCc2ccccc2)[C@H](O)[C@@H](O)[C@@H]1O`, the EC50 is above 100 µM.

As to `COc1ccc(-c2cc(=O)c3c(O)cc(O[C@@H]4O[C@H](CO[C@@H]5O[C@@H](C)[C@H](O)[C@@H](O)[C@H]5O)[C@@H](O)[C@H](O)[C@H]4O[C@@H]4O[C@H](COC(C)=O)[C@@H](O)[C@H](O)[C@H]4O)cc3o2)cc1`, the EC50 was above 100 µM.

Regarding `O=c1cc(-c2ccc(O)cc2)oc2cc(O[C@@H]3O[C@H](CO)[C@@H](O)[C@H](O)[C@H]3O)cc(O)c12` [APIGETRIN], the EC50 is above 100 µM.

With `O=C1C[C@@H](c2ccc(O)c(O)c2)Oc2c1ccc(O)c2O`, the EC50 amounted to 6.2 µM.

Consider `COc1c(O)c(OC)c2c(=O)cc(-c3ccccc3)oc2c1OC`, for which the EC50 came to 43.6 µM.

`O=c1cc(-c2ccc(O)cc2)oc2cc(O)cc(O)c12` [APIGENIN]: the EC50 was above 100 µM.

As for `COc1ccc(-c2cc(=O)c3c(O)cc(O[C@@H]4O[C@H](CO[C@@H]5O[C@@H](C)[C@H](OC(C)=O)[C@@H](O)[C@H]5O)[C@@H](O)[C@H](O)[C@H]4O[C@@H]4O[C@H](CO)[C@@H](O)[C@H](O)[C@H]4O)cc3o2)cc1`, the 50% effective concentration (EC50) came to 69.7 µM.

Consider `O=C(O)/C=C\c1ccc(O)cc1`, for which the EC50 was above 100 µM.

`COc1ccc(-c2cc(=O)c3c(O)cc(O[C@@H]4O[C@H](CO[C@@H]5O[C@@H](C)[C@H](OC(C)=O)[C@@H](O)[C@H]5O)[C@@H](O)[C@H](O)[C@H]4O)cc3o2)cc1`: the EC50 is above 100 µM.

On to `COc1ccc(/C=C/C(=O)c2ccc(O[C@@H]3O[C@H](CO)[C@@H](O)[C@H](O)[C@H]3O)cc2O)cc1O`, for which the EC50 is 63.4 µM.

Regarding `O=C1/C(=C/c2ccc(O)c(O)c2)Oc2cc(O)ccc21` [SULFURETIN], the EC50 is 3.5 µM.

Consider `COc1ccc(/C=C/C(=O)c2ccc(O[C@@H]3O[C@H](CO)[C@@H](O)[C@H](O)[C@H]3O)c(O)c2O)cc1O`, for which the concentration giving a half-maximal response (EC50) came out at 4.7 µM.

For `O=C(O)/C=C/c1ccc(O)c(O)c1` [CAFFEIC ACID], the EC50 turned out to be 77.1 µM.

In the case of `O=C(O)c1ccc(O)cc1` [PARABEN], the EC50 is above 100 µM.

For the compound `COc1cc2oc(-c3ccccc3)cc(=O)c2c(O)c1OC` [MOSLOFLAVONE], the EC50 came out at 23.4 µM.

For the compound `O=C(O)/C=C/c1ccc(O)cc1` [COUMARIC ACID], the EC50 is 6.4 µM.

For `O=C1/C=C/c2ccc(O)c(c2)O[C@@H]2O[C@H](COC(=O)/C=C/c3cc(O)c(O)cc3C1)[C@@H](O)[C@H](O)[C@H]2O`, the EC50 came to 8.3 µM.

Consider `CC(=O)/C=C/c1ccc(O)c(O[C@@H]2O[C@H](COC(=O)/C=C/c3ccc(O)c(O)c3)[C@@H](O)[C@H](O)[C@H]2O)c1`, for which the EC50 was determined as 62.2 µM.

Regarding `COc1ccc(-c2cc(=O)c3c(O)cc(O)cc3o2)cc1O` [DIOSMETIN], the EC50 worked out at 59.7 µM.

For the compound `CC(C)=CCC/C(C)=C\CO[C@@H]1O[C@H](CO)[C@@H](O)[C@H](O)[C@H]1O`, the EC50 is above 100 µM.

On to `O=Cc1ccc(O)cc1` [4-HYDROXYBENZALDEHYDE], for which the EC50 is 33.2 µM.

Take `O=C(/C=C/c1ccc(O)c(O)c1)O[C@H](Cc1ccc(O)c(O)c1)C(=O)O` [ROSMARINIC ACID]: the EC50 is 86 µM.

As for `COc1ccc(/C=C/C(=O)c2ccc(O)cc2O)cc1O`, the EC50 is 35.2 µM.
